Key:
[1] = test system: J774 murine macrophages cells; assay: In vitro cytokine analysis, LPS-stimulated J774 cells (ELISA); type: cell-based; settings: 10 ng ml^−1 PEPITEM 15 minutes pre-treatment, LPS (10 μg ml^−1) 24 h, vs PBS (FIG. 7)
Experimental: J774 murine macrophages cells were pre-treated with 10 ng ml^−1 PEPITEM (SVTEQGAELSNEER; Cambridge Research Biochemicals Limited; Cambridge, UK) or phosphate buffered saline (PBS—as control) for 15 minutes and then stimulated with LPS (10 μg ml^−1) for 24 h. Cell supernatants were collected and analysed for the protein expression of IL-6 and TNF-α by ELISA.

[2] = Prophylactic PEPITEM, 6 weeks HFD: body weight and IPGTT; type: in vivo, C57BI/6J wild type (WT) mice
Experimental: (§1) Eight-week-old, male, C57BI/6J wild type (WT) mice were purchased from Charles River and were maintained in a specific pathogen free facility, with free access to food. Environmental conditions were: 21±2° C., 55±10% relative humidity and a 12 hour light-dark cycle. Mice were fed high fat diet (HFD) containing 60% fat (cat no. D12492, Research Diets, INC) for up to 12 weeks. Alzet mini pumps 2006 (Charles River) containing 3.5 mg/ml of PEPITEM (SVTEQGAELSNEER-PEG (352)-Amide; Cambridge Research Biochemicals Limited; Cambridge, UK) or phosphate buffered saline (PBS) were implanted at baseline (prophylactic administration) or following 6 weeks of HFD (therapeutic administration), continuously releasing 0.822 mg of content/week. Body weight was assessed weekly. Intraperitoneal glucose tolerance tests (IPGTT) were assessed at 3, 6, 8, and 12 weeks in mmol/l using Contour XT glucometer as described in Nasteska, D. et al., JCI Insight 6, doi: 10.1172/jci.insight. 140288 (2021). Mice were culled […] blood collected into ethylenediaminetetraacetic acid (EDTA) coated eppendorfs^RTM. The peritoneal cavity was lavaged with 5 mM EDTA, spleen and inguinal lymph nodes were isolated and stored in PBS. Gonadal visceral fat pads and abdominal subcutaneous fat was stored in RPMI 1640 media (Gibco) containing 2% BSA and pancreas was FFPE as described in Nasteska, D. et al (supra).

[3] = Therapeutic PEPITEM (last 6 of 12 weeks HFD): body weight and IPGTT; type: in vivo, C57BI/6J wild type (WT) mice
Experimental: as §1

leukocyte trafficking [4] = assay: Therapeutic PEPITEM (last 6 of 12 weeks HFD): leukocyte subsets by flow cytometry; type: in vivo, C57BI/6J wild type (WT) mice
Experimental: as §1
(§2) All tissue samples were weighed prior to processing. Fat tissue was broken into pieces, incubated in an enzyme cocktail consisting of 200 μg/ml Collagenase P (Sigma), 800 μg/ml Collagenase Dispase, 100 μg/ml DNase (both Merck) diluted in Roswell Park Memorial Institute medium (RPMI) containing 2% fetal bovine serum (FBS) at 37° C. for 30 min before being passed through 70 UM filter. Samples were washed by centrifugation in RPMI containing 2% FBS at 400 g (g-force) for 10 minutes and the stromal vascular fraction re-suspended in red blood cell (RBC) lysis buffer for 10 minutes. Samples were then washed by centrifugation at 400 g and re-suspended in RPMI containing 2% FBS. The spleen and lymph node were crushed through a […] filter. Spleen, lymph node and blood samples were all incubated in the RBC lysis buffer as described prior to re-suspension in magnetic-activated cell sorting (MACS) buffer. Peritoneal lavage fluid (PLF) were centrifuged at 400 g for 5 minutes and the cells were resuspended in MACS buffer.
(§3) All samples were blocked with Fc receptor (FcR) blocker (Miltenyi Biotec) prior to staining with the following of antibodies and Zombie Aqua (Biolegend) for 20 minutes at 4° C. prior to washing and fixation with 2% paraformaldehyde (PFA): anti-CD45.2 BV605 (clone 104; Biolegend), anti-CD3 PECy7 (clone 145-2c11), anti-CD4 eFluor450 (clone GK1.5), anti-CD8 PE-TexasRed ^RTM (clone 5H10), anti-CD44 FITC (clone IM7), anti-CD25 AF700 (clone PC61.5), anti-KLRG1 APC-eFluor780 (clone 2F1), anti-CD62L PE (clone MEL-14), anti-CD19-APC (clone 1D3), anti-CD45 APC-CY7 (clone 104), F4/80 FITC (clone BM8), anti-CD11c PE-Cy7 (clone N418), anti-Gp38 PE (clone 8.1.1; all from Thermofisher); anti-CD23 BV421 (clone B3B4), anti-CD93 BV650 (clone AA4.1), anti-CD43 PerCp-Cy5.5 (clone S7), anti-CD21/35 PE (clone 7G6), anti-Siglec F TexasRed^RTM (clone E50-2440), Ly6G APC (clone 1A8; all from BD). Compensation controls were generated using the cells isolated from the spleen. Immediately prior to analysis CountBright beads (Invitrogen) were added and samples were acquired using Fortessa-X20 and data analysed offline using FlowJo^RTM (V-10.2.6) (FIG. 4).

pancreatic islets [5] = assay: Prophylactic PEPITEM, 6 weeks HFD: pancreatic islet immunofluorescence imaging; type: in vivo, C57BI/6J wild type (WT) mice
Experimental: (§4) Eight-week-old, male, C57BI/6J wild type (WT) mice were purchased from Charles River and were maintained in a specific pathogen free facility, with free access to food. Environmental conditions were: 21±2° C., 55±10% relative humidity and a 12 hour light-dark cycle. Mice were fed high fat diet (HFD) containing 60% fat (cat no. D12492, Research Diets, INC) for up to 12 weeks. […] Body weight was assessed weekly. Intraperitoneal glucose tolerance tests (IPGTT) were assessed at 3, 6, 8, and 12 weeks in mmol/l using Contour XT glucometer as described in Nasteska, D. et al., JCI Insight 6, doi: 10.1172/jci.insight. […]
(§5) Slides were imaged using Zeiss Axioscan 7 Slide Scanner at 20× magnification using the same acquisition parameters for each slide. Images were initially processed with ZEN Software (Black Edition v2.2) into digital arrays, which were subsequently analysed with ImageJ (1.53K). […] Average number of islets and islet area were determined and expressed as number or area/10,000 μm^2 of the whole pancreatic section area, as previously described by Slavin, B et al., Anat. […]

pancreatic islets [6] = assay: Therapeutic PEPITEM (last 6 of 12 weeks HFD): pancreatic islet immunofluorescence imaging; type: in vivo, C57BI/6J wild type (WT) mice
Experimental: as §4, §5

leukocyte trafficking [7] = assay: Prophylactic PEPITEM, 6 weeks HFD: leukocyte subsets by flow cytometry; type: in vivo, C57BI/6J wild type (WT) mice
Experimental: as §1, §2, §3

Substance: PEPITEM [SVTEQGAELSNEER, 14-amino-acid immunopeptide derived from 14.3.3.ζδ]
- amount of IL-6 secreted [1]: significant reduction
- amount of TNFalpha secreted [1]: significant reduction
- body weight ([2]; 6 weeks HFD, prophylactic mini pump, vs PBS (FIG. 5(A))): unaffected
- fasting glucose tolerance or insulin resistance ([2]; week 3 or 6 of HFD, prophylactic, vs PBS (FIG. 5(B))): no effect
- glucose tolerance ([3]; 8 or 12 weeks of diet, therapeutic (FIG. 5(D))): no effect
- weight of the mouse ([3]; 12 weeks HFD, therapeutic (FIG. 5(C))): no effect
- CD3+KLRG1+ T-cells numbers in the peritoneal cavity (leukocyte trafficking [4]; therapeutic (FIG. 2(H))): no effect
- number of CD3+KLRG1+ T-cells in the blood (leukocyte trafficking [4]; therapeutic (FIG. 2(I))): lower
- number of age-associated B-cells in the blood (leukocyte trafficking [4]; therapeutic (FIG. 2(J))): lower
- number of neutrophils in the blood (leukocyte trafficking [4]; therapeutic (FIG. 2(K))): lower
- composition of leukocyte subsets in subcutaneous adipose tissue (leukocyte trafficking [4]; therapeutic (data not shown)): no effect
- B-cell numbers in the spleen (leukocyte trafficking [4]; therapeutic, vs PBS (FIG. 3(E))): elevated
- age-associated B-cell numbers in the spleen (leukocyte trafficking [4]; therapeutic, vs PBS (FIG. 3(F))): elevated
- number of CD45+ leukocytes in the spleen (leukocyte trafficking [4]; therapeutic, vs control animals (FIG. 3(A))): increased
- number of CD3+ T-cells in the spleen (leukocyte trafficking [4]; therapeutic, vs control animals (FIG. 3(B))): increased
- number of CD45+ leukocytes in the inguinal lymph node (leukocyte trafficking [4]; therapeutic, vs control animals (FIG. 3(C))): increased
- number of CD3+ T-cells in the inguinal lymph node (leukocyte trafficking [4]; therapeutic, vs control animals (FIG. 3(D))): increased
- number of CD3+ T-cells in the VAT (leukocyte trafficking [4]; therapeutic, vs vehicle control (FIG. 2(D))): significant reduction
- number of CD4+ T-cells in the VAT (leukocyte trafficking [4]; therapeutic, vs vehicle control (FIG. 2(E))): significant reduction
- number of CD3+KLRG1+ T-cells in the VAT (leukocyte trafficking [4]; therapeutic, vs vehicle control (FIG. 2(F))): significant reduction
- macrophage numbers in the peritoneal cavity (leukocyte trafficking [4]; therapeutic, vs vehicle control (FIG. 2(G))): significant reduction
- number of pancreatic islets (pancreatic islets [5]; vs PBS (FIG. 1(C))): no effect
- individual area of pancreatic islets (pancreatic islets [5]; vs PBS (FIG. 1(D))): significantly reduced
- overall number of islets (pancreatic islets [6]; vs control mice (FIG. 2(B))): without affecting
- pancreatic islet size (pancreatic islets [6]; vs control mice (FIG. 2(C))): significantly reduced
- number of T-cell subsets, B-cell subsets, neutrophils, eosinophils or macrophages in the blood, inguinal lymph node or spleen (leukocyte trafficking [7]; 6 weeks HFD, prophylactic (FIG. 6)): no effect
- T-cells (CD3+) in visceral adipose tissue (leukocyte trafficking [7]; 6 weeks HFD, prophylactic, vs HFD control (FIG. 1(E))): Significantly fewer
- CD4+ T cells in visceral adipose tissue (leukocyte trafficking [7]; 6 weeks HFD, prophylactic, vs HFD control (FIG. 1(F))): Significantly fewer
- KLRG1+CD3+ T-cells in visceral adipose tissue (leukocyte trafficking [7]; 6 weeks HFD, prophylactic, vs HFD control (FIG. 1(G))): Significantly fewer
- T-cells (CD3+) in peritoneal cavity (leukocyte trafficking [7]; 6 weeks HFD, prophylactic, vs HFD control (FIG. 1(H))): Significantly fewer
- KLRG1+CD3+ T-cells in peritoneal cavity (leukocyte trafficking [7]; 6 weeks HFD, prophylactic, vs HFD control (FIG. 1(I))): Significantly fewer
- macrophages within the peritoneal cavity (leukocyte trafficking [7]; 6 weeks HFD, prophylactic, vs PBS (FIG. 1(J)), back to levels of chow-fed mice): significant reduction
- absolute numbers of macrophages in the VAT (leukocyte trafficking [7]; HFD-fed mice, model (6 or 12 weeks) not specified): did not influence
